From BindingDB's records for doi:10.7270/Q2S46QBK (The Scripps Research Institute Molecular Screening Center, 2008)
pIC50: −log10 of the molar value.

Biological target: T1, Signal transducer and activator of transcription 3 [702-738,740-752] (Homo sapiens, UniProt P40763)
T1 construct: 702-738,740-752
Assay: STAT3 activation reporter response, dose response, cell-based (AID 1398)

T1 sequence (P40763 as listed by the source): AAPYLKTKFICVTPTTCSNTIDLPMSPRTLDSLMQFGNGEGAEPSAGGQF

| SMILES | pIC50 |
| --- | --- |
| Cc1[nH]n(-c2ccccc2)c(=O)c1C=C1C(=O)NC(=O)NC1=O | < 4.25 |
| Cc1nonc1CC(=O)N1CCc2c([nH]c3ccccc23)C1c1ccccc1F (stereo not given) [1-[1-(2-fluorophenyl)-1,3,4,9-tetrahydropyrido[3,4-b]indol-2-yl]-2-(4-methyl-1,2,5-oxadiazol-3-yl)ethanone] | < 5.69 |
| CCCSc1nnc(Sc2nnnn2-c2ccccc2)s1 [2-(1-phenyltetrazol-5-yl)sulfanyl-5-propylsulfanyl-1,3,4-thiadiazole] | < 5.21 |
| Cn1c(CNc2ccccc2O)nc2ccccc21 [2-[(1-methyl-2-benzimidazolyl)methylamino]phenol] | < 8.07 |
| Cc1cccc(NC(=O)c2cc([N+](=O)[O-])ccc2Cl)c1O [2-chloranyl-N-(3-methyl-2-oxidanyl-phenyl)-5-nitro-benzamide] | < 5.21 |
| Cn1nc(-c2ccc(Cl)cc2)c2cc(C(=O)NCCCN3CCCC3)sc21 [3-(4-chlorophenyl)-1-methyl-N-(3-pyrrolidin-1-ylpropyl)thieno[2,3-c]pyrazole-5-carboxamide] | < 5.21 |
| COC(=O)C(NC=O)C(O)(Cc1ccccc1)C(F)(F)F (stereo not given) [3-benzyl-4,4,4-trifluoro-2-formamido-3-hydroxy-butyric acid methyl ester] | < 6.16 |
| COC(=O)c1sccc1NC(=O)c1cc2c(s1)CCCC2 [MLS000051746] | < 5.69 |
| COc1ccccc1C(=O)Nc1cc(Cl)ccc1O [MLS000078111] | < 5.69 |
| CC(=O)Nc1c(Cl)n(C(C)=O)c2ccccc12 [MLS000104263] | < 7.12 |
| CCCc1cc(C(=O)Nc2cc(OC)c(Cl)cc2OC)no1 [MLS000116379] | < 6.64 |
| COc1cc(NC(=O)c2cc(C(C)C)on2)c(OC)cc1Cl [MLS000520019] | < 6.64 |
| COc1cc(NC(=O)c2cc(C3CC3)on2)c(OC)cc1Cl [MLS000522376] | < 7.12 |
| Nc1nc(-c2ccc(Cl)cc2)nn1C(=O)c1cccs1 [MLS000706198] | < 6.16 |
| COc1ccccc1NC(=O)c1[nH]c(C)c(C(C)=O)c1C [SMR000066913] | < 7.59 |
